Read-outs that look alike come from different tables or passages of the source.
Columns and labels:
HIV-1 [1] = assay: AZT and Compound No. 2 in combination, HIV-1 infected monocyte cultures, RT activity; assay type: cell-based; settings: for reverse transcriptase activity in supernatant: (−) No. 2
Method: Primary human monocytes were obtained from peripheral blood by Ficoll-Hypaque centrifugation and adherence to plastic as described previously. Gartner S. P., et al., 1986, Science 233:215. Briefly, after Ficoll-Hypaque (Pharmacia) separation, PBMCs were washed 4 times with DMEM (the last wash was done at 800 rpm to remove platelets) and resuspended in monocyte culture medium [DMEM supplemented with 1 mM glutamine, 10% heat-inactivated human serum, 1% penicillin+streptomycin mixture (Sigma)] at a density of 6×10^6 cells/ml. Cells were seeded in 24-well plates (1 ml per well) and incubated for 2 h at 37° C, 5% CO2. Following incubation, cells were washed 3 times with DMEM to remove non-adherent cells and incubation was continued in monocyte culture medium supplemented with 250 U/ml human M-CSF (Sigma). Cells were allowed to mature for 7 days prior to infection with the monocyte-tropic strain, HIV-1ADA. Nuovo, G. J., et al., 1992, Diagn. Mol. Pathol. 1:98. Two hours after infection, cells were washed with medium and cultured in RPMI supplemented with 10% human serum. In experiments where PCR analysis was performed, virus was pretreated with RNAse-free DNAse (Boehinger-Mannheim) for 2 h at room temperature and then filtered though a 0.2 μm pore nitrocellulose filter prior to infection.
For the reverse transcriptase (RT) assay, 10 μl of culture supernatant was added to 40 μl of reaction mixture (final composition was 50 mM Tris-HCl, pH 7.8; 20 MM KCl; 5 MM MgCl2; 1 mM DTT; 0.1% Triton X-100; 0.2 OD/ml polyA; 0.2 OD/ml oligo(dT)12-18; and 40 μCi/ml ^3H-dTTP (76 Ci/mmol, DuPont) and incubated 2 hr at 37° C. 5 μl of the reaction mixture was then spotted onto the DE 81 (Whatman) paper. Paper was air dried and washed 5 times with 5% Na2HPO4, followed by rinsing with distilled water. After air drying, paper was put on a Flexi Filter plate (Packard), covered with scintillation fluid and counted in a Top Count Microplate Counter (Packard). Results are expressed as counts per minute in 1 ml of supernatant (cpm/ml).
In view of these premises, the effects on HIV-1 replication in human monocyte cultures of the various concentrations of AZT, alone or in combination with 100 nM Compound No. 2, were tested using the protocols of Sections 6.2.1 and 6.2.2. Drugs were added to the monocyte cultures together with HIV-1 at about 10^5 TCID/ml. The concentration of drugs was maintained on refeeding. HIV-1 replication was assessed by assay of the supernatant for reverse transcriptase activity. The results are expressed as mean ± std. dev. (cpm×10^−3) in Table V.

HIV-1 [2] = assay: HIV-1 production in cultured monocytes at fixed 100 nM; assay type: cell-based; settings: monocytes infected 10 days prior to assay (10 ng p24/10^6 cells), percentage of untreated control
Method: Alternatively, the compounds may all be compared for inhibition of HIV replication at a fixed concentration. Presented in Table II are compounds that were used at a concentration of 100 nM to inhibit the production of HIV-1 in cultured monocytes infected with HIV-1 10 days prior to assay (10 ng of p24/10^6 cells). The production of HIV-1 in each treated culture is reported as percentage of untreated control.

[3] = Toxicity in mice, median lethal dose by intraperitoneal injection; assay type: in vivo, mouse; settings: for LD50: mouse, in vivo, ip, read-out: LD50 ± standard deviation
Method: The doses of compounds of the invention found to be lethal to 50% of the mice (LD50) were determined by intraperitoneal injection of groups of five animals with increasing doses of each compound. CNI-0294 was administered from 0, 2, 10, 20, 40, 80, 160, 320, 640, 1280 mg/kg in 0.5 ml of water/HCl; CNI-1594 at 0, 2.4, 5, 10, 20, 40, 80 mg/kg in 0.5 ml of water/HCl; CNI-1794 at 0, 20, 50, 80 mg/kg in 0.5 ml of water/HCl; and CNI-1894 at 0, 10, 20, 40, 80, 240, 480, 960 mg/kg in water/HCl. […] The percentage of animals in each group which died were utilized to calculate the LD50 by non-linear curve fitting with the Enzfit software (Elsevier Bioscience; Cambridge, UK) programmed with the Chou equation (Chou 1976, J Theor Biol 39:253-276)).

Plasmodium falciparum = assay: Antimalarial activity in vitro, [3H]-hypoxanthine incorporation; assay type: cell-based; settings: for IC50: Plasmodium falciparum
From the text: The antimalarial properties of the compounds of the invention can be analyzed by techniques, assays and experimental animal models well known in the art. For example, the inhibition of growth of Plasmodium falciparum in vitro by the compounds may be assessed by the hypoxanthine-incorporation method (Desjardins et al., 1979, Antimicrob. Ag. Chemother. 16:710-718). […] The in vivo efficacy of the compounds can also be tested in mouse models in which parasitemia is enumerated following administration of the compound (Ager, A. L. 1984, Rodent malaria models, pp 225-264. In Handbook of Experimental Pharmacology vol. 68, Antimalarial Drugs, Peters and Richards eds, Springer-Verlag, Berlin).
The antimalarial activity of the compounds was determined essentially as described in Desjardins et al. supra. Fifty μl of various concentrations of a compound of the invention, chloroquine, or pyrimethamine were added to the wells of microtiter plates, followed by 200 μl of ring-stage, synchronized, P. falciparum-infected erythrocytes (final hematocrit=1.5%, final parasitemia=1-5%). The plates were incubated for 24 hr in a candle jar kept at 37° C., and then 25 μl of [^3H]-hypoxanthine (Amersham, Arlington Heights, ILL.; 2.5 μl Ci/well) was added. The plates were then incubated for a further 24 hr, before harvesting onto Unifilter-96 GF/C filter-microplates (Packard; Meriden, Conn.). Twenty-five μl of Microscint scintillation fluid (Packard) was added to each well of the filter-microplate, which was subsequently counted in a Top-count microplate scintillation counter (Packard). The percent of [^3H]-hypoxanthine uptake relative to control infect-erythrocytes was used to determine the IC50 value for the compounds by non-linear regression for LD50 determination.

[4] = Pharmacokinetics in mice (plasma, HPLC); assay type: in vivo, mouse
Method: Standard addition curves for each test compound were constructed by adding increased amounts of drug to mouse or human A^+ plasma (Long Island Blood Services; Melville, N.Y). […] The column was washed with 1.0 ml of water and then eluted with 1.0 ml of 10 mM tetramethylammonium chloride/10 mM heptane sulfonate/4.2 mM H3PO4/95% CH3CN/5% H2O (Buffer C). The eluted sample was reduced to dryness in a rotary evaporator and resuspended in 1.0 ml Buffer A.
Two hundred μl of the resuspended sample was injected onto a Hewlett-Packard model 1090 high performance liquid chromatography system (HPLC)(Wilmington, Del.) equipped with a photodiode array ultraviolet/visible spectrophotometric detector, autosampler, and Chemstation operating software. The column used was a 250×4.6 mm Zorbax RX-C8 column (Mac-Mod Analyticals; Chadd's Ford, Pa.) kept at room temperature and run at 1.5 ml/min. The mobile phase used was Buffer A and 10 mM tetramethylammonium chloride/10 mM heptane sulfonate/4.2 mM H3PO4/75% CH3CN/25% H2O (Buffer B), with all runs initiated at 10% Buffer B. A linear 30 min gradient to 60% Buffer B was then performed, followed by a 4 min reverse gradient to initial conditions.
Female ND4 Swiss Webster mice (21-24 g) were obtained from Harlan Sprague Dawley (Indianapolis, Ind.) and randomly placed in groups of five in cages with free access to food and water. […] The other CNI compounds were administered intraperitoneally or by oral gavage as a solution in water titrated with sufficient HCl to dissolve the drug. At various time points, ranging from 5 min to 4 days, a single group of animals was euthanized by carbon dioxide inhalation and bled by cardiac puncture using heparin as an anticoagulant. The blood from the five mice in the group was pooled and centrifuged at 14000× g for 10 min. The volume of plasma was measured, and equal volume of Buffer A added, and the mixture extracted and analyzed as described above, except that the dried eluates were resuspended in 200 μl Buffer A and 100 μl was injected onto the high performance liquid chromatography (HPLC) system.
The area under the plasma concentration-time curve (AUC) was determined, and bioavailability was measured as AUCoral/AUCi.p. A and B represent the zero time intercept of the distribution and elimination phases respectively, and a and β the respective slopes of the phases multiplied by 2.303. The t/2α and t1/2β are calculated half-lives of the drug in each phase (0.693/α and 0.693/β respectively). The volume of distribution (VD) was calculated as dose/B, and the total clearance rate (Cltot) calculated as β*VD. Cmax and tmax are the maximal plasma concentration and time of this measurement, respectively.

[5] = In vitro metabolism with mouse liver post-mitochondrial supernatant and NADPH; assay type: in vitro ADME
Method: Several female ND4 Swiss Webster mice were euthanized by carbon dioxide inhalation and the livers excised and rinsed with ice cold phosphate buffered saline (pH 7.4). The livers were minced, gently homogenized in 50 mM phosphate buffer (pH 7.4) with a Dounce homogenizer, and centrifuged at 9600× g for 20 min. The post-mitochondrial supernatant was kept, glycerol added to 20%, and frozen at −70° C in 1.0 ml aliquots until used. For each incubation, 1.0 ml of a 1.0 mg/ml drug solution was added to 3.0 ml of 50 mM phosphate buffer (pH 7.4), 1.0 ml of 2 mg/ml NADPH in 50 mM phosphate (pH 7.4), and 1.0 ml of the post-mitochondrial supernatant. Five hundred μl of each incubate was then immediately transferred to an ice-cold tube to provide the zero-time sample, and addition 500 μl aliquots removed to ice-cold tubes at 8, 15, 30, and 60 min. The samples were then extracted, and analyzed by HPLC as described in section 7.1. Control incubations were also performed where drug or post-10 mitochondrial supernatant was omitted. […] Peaks in the CNI compound incubations which increased over time, and were not present in control samples lacking the enzyme preparation were treated as putative metabolites.

HIV-1ADA = assay: Anti-HIV activity in primary human monocytes, day 9 (Table IX, FIG. 12C); assay type: cell-based; settings: Human immunodeficiency virus 1, Monocyte, 216 h; day 9 after infection; >10 μM = 50% inhibition not achieved at maximal concentration; read-out: IC50
Method: Monocytes infected with HIV-1ADA were cultured in the presence of CNI-H0294 and CNI-H3094 in various concentrations. Nine days after infection, RT activity in culture supernatants was quantified. The results are presented as percent of total RT activity in untreated cultures (control). Three independent samples were assayed for each drug concentration, and the standard deviation was less than 15%.
[…] A 50% inhibitory concentration (IC50) was determined at day 9 after infection.

[6] = female, ND4 Swiss Webster, mouse, plasma, ip, 50 mg/kg, vehicle water
[7] = mouse, i.p., 50 mg/kg, vehicle water

SMILES: Cc1cn([C@H]2C[C@H](N=[N+]=[N-])[C@@H](CO)O2)c(=O)[nH]c1=O [AZT]
- reverse transcriptase activity in supernatant (HIV-1 [1]; day-7, 10 pM AZT, mean ± std. dev.): 0.92 ± 0.21 cpm×10^−3
- reverse transcriptase activity in supernatant (HIV-1 [1]; day-7, 100 pM AZT): 0.79 ± 0.14 cpm×10^−3
- reverse transcriptase activity in supernatant (HIV-1 [1]; day-7, 1 nM AZT): 0.60 ± 0.28 cpm×10^−3
- reverse transcriptase activity in supernatant (HIV-1 [1]; day-7, 10 nM AZT): 0.05 ± 0.02 cpm×10^−3
- reduction in RT activity (HIV-1 [1]; day-11, 10 pM AZT alone): about 20%
- reverse transcriptase activity in supernatant (HIV-1 [1]; day-11, 10 pM AZT): 1.63 ± 0.81 cpm×10^−3
- reverse transcriptase activity in supernatant (HIV-1 [1]; day-11, 100 pM AZT): 1.34 ± 0.59 cpm×10^−3
- reverse transcriptase activity in supernatant (HIV-1 [1]; day-11, 1 nM AZT): 1.07 ± 0.49 cpm×10^−3
- reverse transcriptase activity in supernatant (HIV-1 [1]; day-11, 10 nM AZT): 0.08 ± 0.03 cpm×10^−3

SMILES: CC(=O)c1cncc(C(C)=O)c1 [3,5-diacetylpyridine]
- Viral Production (HIV-1 [2]): 58%

SMILES: CC(=O)c1ccc(Nc2cc(C)nc(N)n2)cc1 [Compound No. 17, 2-amino-4-(4-acetylphenyl)amino-6-methylpyrimidine]
- LD50 [3]: 48.93 ± 0.12 mg/kg

SMILES: CC(=O)c1cc(C(C)=O)cc(N(C)C)c1 [N,N-dimethyl-3,5-diacetylaniline]
- Viral Production (HIV-1 [2]): 25%

SMILES: CCc1nc(N)nc(N)c1-c1ccc(Cl)cc1 [Pyrimethamine]
- IC50 (Plasmodium falciparum; DD2, clone Dd2, ± standard deviation, read-out: IC50): 104000 ± 9790 nM
- IC50 (Plasmodium falciparum; clone W2mef, ± standard deviation, read-out: IC50): 17800 ± 13500 nM

SMILES: CC(=O)c1cccc(C(C)=O)c1N [2,6-diacetylaniline]
- Viral Production (HIV-1 [2]): 28%

SMILES: CC(=O)c1cc(N)cc(C(C)=O)c1 [CNI-1894, 3,5-diacetylaniline]
- Viral Production (HIV-1 [2]): 20%
- AUC [4, 6]: 20200 ng·h/mL
- Cmax [4, 6]: 13400 ng/mL
- Tmax ([4]; female, ND4 Swiss Webster, plasma, ip, mouse, i.p., 50 mg/kg, vehicle water, read-out: tmax (converted)): 5 min
- maximal plasma level ([4]; mice, single i.p. injection (50 mg/kg; CNI-1594 20 mg/kg)): 13.43 µg/mL
- A (zero time intercept of the distribution phase) [4, 7]: 14.93 µg/mL
- B (zero time intercept of the elimination phase) [4, 7]: 0.15 µg/mL
- Cltot [4, 7]: 3.30 mL/min
- t1/2α [4, 7]: 34.8 min
- t1/2β [4, 7]: 1386 min
- α [4, 7]: 1.19 h⁻¹
- β [4, 7]: 0.03 h⁻¹
- visible signs of toxicity [3]: died 2-3 days post injection, and showed no sign of any immediate toxicity
- LD50 [3]: 258.6 ± 1.37 mg/kg
- metabolites produced [5]: one minor and one major metabolite
- metabolic conversion (drug altered, as judged by peak area) ([5]; 60 min incubation): 17.28%
- antimalarial activity (Plasmodium falciparum; clone Dd2, highest concentration tested 200 μM): inactive at the highest concentration tested
- IC50 (HIV-1ADA): > 10000 nM

SMILES: CCN(CC)CCCC(C)Nc1ccnc2cc(Cl)ccc12 (centres unmarked) [Chloroquine]
- IC50 (Plasmodium falciparum; DD2, clone Dd2, Chloroquine column, unit inferred): 123 ± 7.26 nM
- IC50 (Plasmodium falciparum; FCR3, clone FCR-3, Chloroquine column, unit inferred): 105 ± 9.98 nM
- IC50 (Plasmodium falciparum; HB3, clone HB3, Chloroquine column, unit inferred): 6.73 ± 0.16 nM
- IC50 (Plasmodium falciparum; clone D10, Chloroquine column, unit inferred): 27 ± 2.42 nM
- IC50 (Plasmodium falciparum; clone W2mef, Chloroquine column, unit inferred): 144 ± 13.3 nM
